Data: patent publication US5505715A, “Iontophoretic transdermal delivery of deoxyspergualin compounds” (priority 1994, dated 1996)
“Also recorded” adds a separate entry of the source. Where two headings read alike, the source gives them in different places.

Experiments:
[1] = system: rheumatoid arthritis, diabetes, lupus and multiple sclerosis models; details: in vivo; cited from earlier work
immune activity = details: cited from earlier work
interleukin-2 production = details: cited from earlier work
[2] = cited from earlier work
allograft survival = details: used prophylactically; cited from earlier work
tumors = details: cited from earlier work
[3] = system: anti-KLH antibody response (keyhole limpet hemocyanin); assay: in vivo immunosuppression (anti-KLH antibody response) in fuzzy rats; parameters: species or system fuzzy rat
Text: The humoral response of animals to the foreign protein keyhole limpet hemocyanin (KLH) is used routinely as a model system to test the efficacy of immunosuppressive drugs. Activity in this model has correlated well with activity for suppressing rejection of an allograft or suppressing the development of autoimmune disease in animals. […] The antibody level in the treated animals on the fourteenth day following the initial treatment was still only 6% of the level of the control animals.
Six fuzzy rats were used in this study. The procedure for this study was based on the model described by Tepper et al., Inhibition of Antibody Production by the Immunosuppressive Agent, 15-Deoxyspergualin, Transplant Proc., 23:328-32 (1991). This model involves immunizing the animals with a potent immunogenic antigen, keyhole limpet hemocyanin (KLH). The serum anti-KLH antibody levels (immune response) in the control and treated animals are then measured over 14 days. An effective immunosuppressive agent should result in a suppression of the immune response in the treated animals.
All six fuzzy rats were immunized with a solution of keyhole limpet hemocyanin (1 mg) by intraperitoneal injection. Two rats were used as controls and were not treated with DSG. The other four rats received DSG by transdermal iontophoresis. The electrodes and power supply used in the study of Example 2 were also used for this study. DSG solution (1.5 ml, 15.34 mg) was added to the donor (active) electrode just prior to the experiment. The electrodes were applied to each of the four participating fuzzy rats (one on either side of the spine). Prior to DSG treatment, the animals were anesthetized with METOFANE (methoxyflurane, Pitman-Moore, Mundelein, Ill.) and the hair on the dorsal side depilated. An anesthetic cocktail consisting of 10 ml of KETASET (ketamine HCL, 100 mg/ml; Aveco Co., Inc., Fort Dodge, Iowa) mixed with 2 ml ROMPUN (xylazine, 20 mg/ml; Mobay Corp., Shawnee, Kans.) was used at 0.1 ml per 100 g in order to maintain the animals under anesthesia during the treatment period. A current density of 0.5 mA/cm^2 /hr (2.9 mA total) was used to deliver the DSG. The four rats received DSG by iontophoresis for 3 hours daily over a period of three days (Days 0, 1 and 2) (Day 0 was the first day of the experiment). During this period food and water were provided ad libitum and these four animals were housed individually in metabolic cages so that urine could be collected for analysis. On Day 3 the animals were weighed and then returned to their regular cages for the remaining duration of the study. […]
The blood samples were stored on ice for 1 hour to coagulate and then centrifuged. The serum was separated and analyzed using an ELISA method described below. […] Aliquots were analyzed by HPLC. […]

[4] = parameters: species or system fuzzy rat; details: rat, in vivo
Procedure: Applicants have further conducted an in vivo study to investigate the rate and extent of absorption of DSG in fuzzy rats following transdermal iontophoretic administration. Using iontophoresis, approximately 4 mg of DSG (i.e., between 15-20 mg/kg) was delivered to fuzzy rats over a three-hour period. This is equivalent to a delivery rate of about 230 μg/cm^2 /hr of DSG. Relatively high serum levels of DSG, about 18 μg/ml, were observed after iontophoretic administration.
An aqueous solution of DSG trihydrochloride (10 mg/ml) was prepared two days prior to the experiment and stored at -5° C. until the start of the experiment. This solution was kept refrigerated during the course of the experiment.
Four male fuzzy rats from Harlan Laboratories (Indianapolis, Ind.) were used in this study after a one week quarantine period. The fuzzy rat is a hypotrichotic genetic mutuant of the normal albino rat. The main difference between adult fuzzy and normal haired rats is the poorly developed hair follicles in the skin of the former. As a result, adult fuzzy rats are almost devoid of hair. The fuzzy rats have an intact immune system. […]
Blood samples were taken from the tail artery during the treatment and at the end of the treatment period. […] Blood samples, used electrodes and skin wipes, and urine were analyzed for DSG by scintillation counting. The urine samples were also analyzed by HPLC.

[5] = system: human anti-mouse antibody (HAMA) response; details: patients treated with monoclonal antibody therapy, cited from earlier work
[6] = Procedure: Applicants have evaluated the in vitro delivery of DSG through human cadaver skin using iontophoresis.
An in vitro skin permeation study was conducted to evaluate the iontophoretic transdermal delivery of deoxyspergualin trihydrochloride (DSG) (MW=496) through human cadaver skin mounted in side-by-side glass diffusion cells. A 1.09% w/v solution of DSG was used as the donor solution. The receptor solution was 0.5M NaH2 PO4 aqueous solution. A commercially available power supply (Scepter, Keltronics Corp., Oklahoma City, Okla.) was used. Platinum electrodes were used for this study. The anode was connected to the electrode in the donor side while the cathode was connected to the electrode in the receptor (counterion) fluid. A constant DC current (0.5 mA, 0.78 mA/cm^2) was applied for a period of 48 hours. The receptor solution was sampled at appropriate time intervals. The samples were analyzed for DSG by reverse-phase HPLC using post-column derivatization and fluorescence detection.

[7] = cited from earlier work; remark: listed apart in the source
[8] = system: organ transplant rejection; details: humans; cited from earlier work

Compound: N=C(N)NCCCCCCC(=O)NC(O)C(=O)NCCCCNCCCN (stereo not drawn) [DSG]
- activity in animal models of autoimmune disease [1]: effective in animal models in the treatment of autoimmune diseases like rheumatoid arthritis, diabetes and multiple sclerosis
- immunosuppressive activity (in words) (immune activity): excellent immunosuppressive activity
- immunosuppressive potency relative to marketed immunosuppressants (immune activity; versus cyclosporin A, azathioprine and prednisone): at least as potent as other, currently marketed immunosuppressants
- inhibition of interleukin-2 production (interleukin-2 production): does not inhibit interleukin-2production
- side effect profile ([2]; compared to cyclosporin A, azathioprine and prednisone (b7 also OKT3)): superior side effect profile
- dose limiting toxicity ([2]; in vivo): myelosuppression
- nephrotoxicity ([2]; unlike cyclosporin A): not nephrotoxic
- activity in extending allograft survival (allograft survival): significant activity in extending allograft survival
- antitumor efficacy (tumors): appears to have antitumor efficacy
- antibody level in treated animals as % of control ([3]; Day 14, iontophoresis 3 hours daily for three days): 6%
- suppression of immune response ([3]; iontophoresis 3 hours daily for three days, versus untreated control): substantially suppressed the immune response; also recorded: effectively suppressed the immune response
- deaths before Day 7 ([3]; of four rats treated by iontophoresis): Two
- dose delivered relative to maximum tolerated dose (MTD) ([3]; rat, in vivo): proximate to the maximum tolerated dose (MTD)
- dose delivered by iontophoresis per body weight [4]: 15 to 20 mg/kg
- serum level of DSG ([4]; topical or ocular, 3 h): about 18 μg/ml
- activity against HAMA response [5]: immunosuppressive activity against the human anti-mouse antibody (HAMA) response
- activity against HAMA response ([5]; listed as Deoxyspergualin): useful to suppress human anti-mouse antibody (HAMA) response
- change of permeation rate in later time period [6]: permeation rate decreased during the later time period
- equivalent delivery for a 10 cm^2 delivery system [6]: 135 mg/day
- equivalent dose for a 70 kg average body weight person [6]: 2 mg/kg/day
- expected delivery for a 20 cm^2 donor electrode [6]: 270 mg/day
- passive permeation across human cadaver skin [6]: very little passive permeation
- permeation rate across human cadaver skin [6]: 564 μg/cm^2 /hr
- Cmax ([7]; 4 mg/kg by 3 hour i.v. infusion): about 10 μg/ml
- clearance from plasma (in words) ([7]; human, in vivo): relatively rapid clearance
- plasma clearance ([7]; human, in vivo): about 48,000 ml/hr
- clinical activity as an immunosuppressant [8]: clinical activity as an immunosuppressant
